Structures are written as SMILES.

The results in this text go back to patent publication US10676462B2, “Quinoline derivative” (ONO PHARMACEUTICAL CO., LTD., priority 2013, dated 2020).

The target of this experiment is T1, Axl enzyme (Homo sapiens, UniProt P30530).
T1 construct: a solution containing 400 ng/mL Axl enzyme was prepared
T1 sequence (P30530 26-894): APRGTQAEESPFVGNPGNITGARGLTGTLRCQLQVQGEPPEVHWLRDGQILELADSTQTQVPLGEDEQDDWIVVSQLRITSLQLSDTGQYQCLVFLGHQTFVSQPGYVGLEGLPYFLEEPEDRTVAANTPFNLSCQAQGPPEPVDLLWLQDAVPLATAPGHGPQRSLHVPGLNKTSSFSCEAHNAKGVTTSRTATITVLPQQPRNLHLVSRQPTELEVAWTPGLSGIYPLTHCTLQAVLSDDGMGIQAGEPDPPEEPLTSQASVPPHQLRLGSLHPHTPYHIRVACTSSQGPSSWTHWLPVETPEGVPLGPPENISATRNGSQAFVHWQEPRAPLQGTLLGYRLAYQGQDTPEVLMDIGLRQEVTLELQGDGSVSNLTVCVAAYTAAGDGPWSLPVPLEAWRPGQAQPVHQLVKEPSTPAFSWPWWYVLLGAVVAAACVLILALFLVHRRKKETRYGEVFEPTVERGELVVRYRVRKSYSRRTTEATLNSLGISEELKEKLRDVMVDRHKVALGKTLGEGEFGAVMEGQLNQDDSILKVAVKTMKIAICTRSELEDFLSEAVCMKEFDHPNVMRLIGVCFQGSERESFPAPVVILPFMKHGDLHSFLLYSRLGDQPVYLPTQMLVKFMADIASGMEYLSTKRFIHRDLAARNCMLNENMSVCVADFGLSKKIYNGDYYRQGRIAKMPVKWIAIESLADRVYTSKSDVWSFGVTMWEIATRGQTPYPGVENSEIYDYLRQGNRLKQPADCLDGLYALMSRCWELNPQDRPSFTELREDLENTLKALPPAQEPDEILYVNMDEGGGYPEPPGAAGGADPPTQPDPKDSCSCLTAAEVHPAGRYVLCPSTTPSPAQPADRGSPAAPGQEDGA
Description: Measurement of an Axl inhibitory activity (LanthaScreen TR-FRET, in vitro test). The class given is biochemical. The procedure:
Biological Example 1: Measurement of an Axl Inhibitory Activity (In Vitro Test)
An Axl enzyme inhibitory activity was measured by using LanthaScreen (registered trademark) system (Invitrogen) based on the attached instruction. The reagents used are shown below.
Reaction buffer solution: a solution containing 50 mmol/L HEPES (pH7.5), 0.01% Brij35, 10 mmol/L MgCl2 and 1 mmol/L EGTA was prepared by using purified water.
Test substance solution: a solution containing a test compound of 5-fold concentration with respect to the final concentration was prepared by 20-fold diluting a DMSO solution of test compound of each concentration with the reaction buffer solution.
Enzyme solution: a solution containing 400 ng/mL Axl enzyme was prepared by using the reaction buffer solution.
Substrate solution: a solution containing 45 μmmol/L ATP and 500 nmmol/L Fluorescein-Poly GT (Invitrogen) was prepared by using the reaction buffer solution.
Detection solution: a solution containing 20 mM EDTA and 4 nM PY20 (Invitrogen) was prepared by using Dilution B (Invitrogen).
A 10 mmol/L DMSO solution of the test compound was dispensed into a 96-well plate (Nunc), and, furthermore, a 3-fold dilution series was prepared using DMSO. In each well of the 96-well plate for measurement, 5 μL each of the reaction buffer solution containing DMSO was added to a Blank group and a medium group, and 5 μL of the test substance solution was added to the test substance group, respectively. Next, 10 μL/well of the reaction buffer solution was added to the Blank group, and 10 μL/well each of the enzyme solution was added to the medium group and the test compound group, followed by stirring at room temperature for 10 min. After the completion of stirring, 10 μL each of the substrate solution was added into each well, followed by stirring at room temperature with light shielded for one hour. After the completion of reaction, 25 μL each of the detection solution was added to each well, and stood still at room temperature with light shielded for 30 min. After standing sill, fluorescence intensity at 520 nm and 495 nm at the time of irradiation with exciting light of 340 nm was measured by using Analyst GT (Molecular Devices). The phosphorylation of the artificial substrate was quantified by Time-resolved Fluorescence Resonance Energy Transfer (TR-FRET). TR-FRET ratio was calculated by dividing 520 nm fluorescence signal by 495 nm fluorescence signal for each well, and the inhibition rate (%) in the test compound group was calculated based on the following mathematical formula. Inhibition rate (%)=[1−(TR-FRET ratio of test compound group−A)/(B−A)×100 [Math. 1] A: average value of TR-FRET ratios of Blank group B: average value of TR-FRET ratios of medium group
Values of 50% inhibition rate (IC50 values) of the test compound were calculated from the inhibition curve based on the inhibition rate of the test compounds in each concentration.
In general terms: In TR-FRET formats the signal depends on donor and acceptor labels being close together.
For orientation: IC50 means the concentration at which inhibition is half-maximal. High values mean lower potency, low ones higher potency. For `COc1cc2nccc(Oc3ccc(NC(=O)c4cc5c(n(-c6ccccc6)c4=O)CC(C)(C)CC5=O)nc3)c2cc1OC` [Example 5(1), N-{5-[(6,7-dimethoxy-4-quinolinyl)oxy]-2-pyridinyl}-7,7-dimethyl-2,5-dioxo-1-phenyl-1,2,5,6,7,8-hexahydro-3-quinolinecarboxamide], the midpoint of inhibition, the IC50, lay at 5.6 nM.
Regarding `COc1cc2nccc(Oc3ccc(NC(=O)c4cc5c(n(-c6ccccc6)c4=O)CCCC5=O)nc3)c2cc1OC` [Example 5, N-{5-[(6,7-dimethoxy-4-quinolinyl)oxy]-2-pyridinyl}-2,5-dioxo-1-phenyl-1,2,5,6,7,8-hexahydro-3-quinolinecarboxamide], the IC50 was 2.2 nM.
Next, `O=C1CCCc2c1cc(C(=O)Nc1ccc(Oc3ccnc4cc(OCCCN5CCOCC5)ccc34)cn1)c(=O)n2-c1ccccc1` [Example 17(2), N-[5-({7-[3-(4-morpholinyl)propoxy]-4-quinolinyl}oxy)-2-pyridinyl]2,5-dioxo-1-phenyl-1,2,5,6,7,8-hexahydro-3-quinolinecarboxamide]: 4.4 nM.
Next, `COc1cc2nccc(Oc3ccc(NC(=O)c4cc5c(n(-c6ccccc6)c4=O)CCCC5=O)c(C)c3)c2cc1OC` [Example 23(2), N-{4-[(6,7-dimethoxy-4-quinolinyl)oxy]-2-methylphenyl}-2,5-dioxo-1-phenyl-1,2,5,6,7,8-hexahydro-3-quinolinecarboxamide]: 1.1 nM.
